{"source": "patent US9073875B2", "about": "“Compounds useful as inhibitors of indoleamine 2,3-dioxygenase” (Vertex Pharmaceuticals Incorporated, priority 2012, dated 2015)"}
{"target": "T1, IDO1 (Homo sapiens, UniProt P14902)", "T1 construct": "HeLa cells in which IDO1 expression is induced by IFN-γ; endogenous in cells; host or cells: HeLa cells stimulated with human recombinant IFN-γ", "T1 sequence (P14902 whole entry)": "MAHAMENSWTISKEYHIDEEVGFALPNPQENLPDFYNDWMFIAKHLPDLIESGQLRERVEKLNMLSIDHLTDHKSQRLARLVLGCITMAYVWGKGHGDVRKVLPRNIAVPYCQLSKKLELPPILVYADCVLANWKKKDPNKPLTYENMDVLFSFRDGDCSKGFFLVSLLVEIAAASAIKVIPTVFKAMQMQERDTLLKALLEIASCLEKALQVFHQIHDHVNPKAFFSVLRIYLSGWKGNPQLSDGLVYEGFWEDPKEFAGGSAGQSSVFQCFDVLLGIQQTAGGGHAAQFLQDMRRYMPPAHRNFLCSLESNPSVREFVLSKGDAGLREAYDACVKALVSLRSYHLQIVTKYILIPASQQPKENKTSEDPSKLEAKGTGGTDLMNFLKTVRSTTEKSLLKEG", "experiment": "Cellular IDO1 Inhibition Assay (L-kynurenine production by IFN-γ-stimulated HeLa cells)", "assay_type": "cell-based", "details": "IDO1 induced by IFN-γ, 250 μM L-tryptophan, 48 hours, L-kynurenine by Ehrlich's reagent, maximal concentration 40 μM", "protocol": "Compounds can be screened for their ability to inhibit intracellular IDO1 activity, by measuring the production of L-kynurenine by HeLa cells in which IDO1 expression is induced by IFN-γ. Kynurenine levels can be determined by chemical conversion of L-kynurenine with Ehrlich's reagent (Yue et. al., J Med Chem 2009 Dec. 10; 52(23):7364-7).\nHeLa cells were plated at 20,000 cells per well in 96-well culture plates (Costar 3598) in DMEM (Sigma D5671) supplemented with 10% fetal bovine serum (SAFC Biosciences 12003C), Penicillin/Streptomycin solution diluted 1:100 (Sigma P7539), 4 mM L-glutamine (Sigma G7513), 1% Non Essential Aminoacids (Sigma M7145) and 1 mM Sodium Pyruvate (Sigma S8636). Cells were allowed to adhere for 24 hours at 37° C. in 5% CO2. Subsequently compounds were first serially diluted 1/3 in DMSO then further diluted in media and finally added to the cells, giving a maximal final concentration of 40 μM. Additional medium containing L-tryptophan to a final concentration of 250 μM (Sigma T0254) and human recombinant IFN-γ (R&D Systems 285-IF) were added to the wells to stimulate IDO1 production. Cells were incubated at 37° C. in 5% CO2 for 48 hours.\nFor the measurement of L-kynurenine in HeLa supernatants, plates were centrifuged at 1000 RPM for 5 minutes and 140 μl of media transferred into a polypropylene 96 well plate (Costar 3879) containing 10 μl of 26% Trichloroacetic Acid in water (Sigma T9159). Plates were then sealed using a plate sealer (PlateLoc, Agilent Technology) and incubated at 50° C. for 30 minutes. Plates were centrifuged at 2400 RPM for 10 minutes and 100 μl of media transferred to polystyrene 96-well plates together with 100 μl of Ehrlich's reagent (2% p-Dimethylaminobenzaldehyde, (Sigma D2004) in acetic acid (Fisher, A/400/PB17)). Following the addition of Ehrlich's reagent the absorbance at 490 nm was read using a spectrophotometer (Spectramax Plus, Molecular Devices). Kynurenine levels were plotted against compound concentrations to generate dose response curves and obtain […] values for each active compound using Genedata Screener® Software.\nCellular […] values for each compound may be found in Table 2, below, wherein A=<0.1 μM; B=0.1 μM-1 μM; and C=1 μM-40 μM.", "units": {"IC50": "µM"}}
{"smiles": "Brc1cccc(Nc2cn[nH]n2)c1", "note": "[Compound I-37]", "IC50": "0.1 to 1"}
{"smiles": "OCc1cc(Cl)ccc1Nc1cnn[nH]1", "note": "[Compound I-9, (2-((2H-1,2,3-triazol-4-yl)amino)-5-chlorophenyl)methanol]", "IC50": "0.1 to 1"}
{"smiles": "CS(=O)(=O)NCc1cc(Cl)ccc1Nc1cnn[nH]1", "note": "[Compound I-21]", "IC50": "1 to 40"}
{"smiles": "Clc1cc(Cl)cc(Nc2cn[nH]n2)c1", "note": "[Compound I-16]", "IC50": "0.1 to 1"}
{"smiles": "CNS(=O)(=O)CCc1cc(Cl)ccc1Nc1cnn[nH]1", "note": "[Compound I-17]", "IC50": "0.1 to 1"}
{"smiles": "NCc1cc(Cl)ccc1Nc1cnn[nH]1", "note": "[Compound I-34, N-(2-(aminomethyl)-4-chlorophenyl)-2H-1,2,3-triazol-4-amine]", "IC50": "1 to 40"}
{"smiles": "C=Cc1cc(Cl)ccc1Nc1cnn[nH]1", "note": "[Compound I-40]", "IC50": "< 0.1"}
{"smiles": "CC(C)(Cc1cc(Cl)ccc1Nc1cn[nH]n1)C(=O)O", "note": "[Compound I-33, 3-(2-((2H-1,2,3-triazol-4-yl)amino)-5-chlorophenyl)-2,2-dimethylpropanoic acid]", "IC50": "1 to 40"}
{"smiles": "Fc1ccc(Nc2cnn[nH]2)cc1", "note": "[Compound I-24]", "IC50": "0.1 to 1"}
{"smiles": "Cc1cc(Cl)ccc1Nc1c[nH]nn1", "note": "[Compound I-5]", "IC50": "< 0.1"}
{"smiles": "Clc1ccc(Nc2cn[nH]n2)c(I)c1", "note": "[Compound I-25]", "IC50": "1 to 40"}
{"smiles": "COc1cc(Nc2cn[nH]n2)ccc1Cl", "note": "[Compound I-8]", "IC50": "0.1 to 1"}
{"smiles": "N#Cc1cc(Nc2cn[nH]n2)ccc1Cl", "note": "[Compound I-44, 5-((2H-1,2,3-triazol-4-yl)amino)-2-chlorobenzonitrile]", "IC50": "0.1 to 1"}
{"smiles": "CCc1cc(Cl)ccc1Nc1cnn[nH]1", "note": "[Compound I-1]", "IC50": "< 0.1"}
{"smiles": "Fc1ccc(Nc2cnn[nH]2)cc1Cl", "note": "[Compound I-13, N-(3-chloro-4-fluorophenyl)-2H-1,2,3-triazol-4-amine]", "IC50": "0.1 to 1"}
{"smiles": "O=C(O)CCc1cc(Cl)ccc1Nc1cn[nH]n1", "note": "[Compound I-31]", "IC50": "1 to 40"}
{"smiles": "CC(C)(C)C(Cc1cc(Cl)ccc1Nc1cn[nH]n1)C(=O)O", "note": "(centres unmarked) [Compound I-35]", "IC50": "1 to 40"}
{"smiles": "CN1CCN(CCOc2cc(Cl)ccc2Nc2cnn[nH]2)CC1", "note": "[Compound I-48]", "IC50": "0.1 to 1"}
{"smiles": "Cc1cc(Nc2cnn[nH]2)ccc1Cl", "note": "[Compound I-38]", "IC50": "0.1 to 1"}
{"smiles": "Cc1cc(Cl)cc(Nc2cnn[nH]2)c1", "note": "[Compound I-41]", "IC50": "0.1 to 1"}
{"smiles": "Fc1ccc(Nc2cnn[nH]2)cc1Br", "note": "[Compound I-18]", "IC50": "0.1 to 1"}
{"smiles": "CN(C)S(=O)(=O)CCc1cc(Cl)ccc1Nc1cnn[nH]1", "note": "[Compound I-43]", "IC50": "0.1 to 1"}
{"smiles": "Fc1cc(Nc2c[nH]nn2)ccc1Cl", "note": "[Compound I-14]", "IC50": "0.1 to 1"}
{"smiles": "CN(Cc1cc(Cl)ccc1Nc1c[nH]nn1)C(=O)OC(C)(C)C", "note": "[Compound I-23]", "IC50": "1 to 40"}
{"smiles": "COCc1cc(Cl)ccc1Nc1cnn[nH]1", "note": "[Compound I-4]", "IC50": "< 0.1"}
{"smiles": "Clc1ccc(Nc2cnn[nH]2)cn1", "note": "[Compound I-22, 6-chloro-N-(2H-1,2,3-triazol-4-yl)pyridin-3-amine]", "IC50": "1 to 40"}
{"smiles": "CCc1cc(Nc2cnn[nH]2)ccc1Cl", "note": "[Compound I-7]", "IC50": "0.1 to 1"}
{"smiles": "Clc1ccc(Nc2cnn[nH]2)cc1Cl", "note": "[Compound I-19]", "IC50": "0.1 to 1"}
{"smiles": "Clc1ccc(Nc2cnn[nH]2)c(CCN2CCOCC2)c1", "note": "[Compound I-46]", "IC50": "0.1 to 1"}
{"smiles": "Clc1ccc(Nc2cnn[nH]2)c(CCCN2CCOCC2)c1", "note": "[Compound I-47]", "IC50": "0.1 to 1"}
{"smiles": "COc1cc(Cl)ccc1Nc1cn[nH]n1", "note": "[Compound I-12]", "IC50": "0.1 to 1"}
{"smiles": "Clc1ccccc1Nc1cnn[nH]1", "note": "[Compound I-29]", "IC50": "1 to 40"}
{"smiles": "Cc1cc(F)ccc1Nc1c[nH]nn1", "note": "[Compound I-36, N-(4-fluoro-2-methylphenyl)-2H-1,2,3-triazol-4-amine]", "IC50": "< 0.1"}
{"smiles": "Cc1c(Cl)cccc1Nc1cnn[nH]1", "note": "[Compound I-39]", "IC50": "0.1 to 1"}
{"smiles": "Brc1ccc(Nc2c[nH]nn2)cc1", "note": "[Compound I-3]", "IC50": "< 0.1"}
{"smiles": "CC(=O)NCc1cc(Cl)ccc1Nc1cnn[nH]1", "note": "[Compound I-20, N-(2-((2H-1,2,3-triazol-4-yl)amino)-5-chlorobenzyl)acetamide]", "IC50": "0.1 to 1"}
{"smiles": "Clc1ccc(Nc2cn[nH]n2)cc1", "note": "[Compound I-2]", "IC50": "< 0.1"}
{"smiles": "Fc1cccc(Nc2cnn[nH]2)c1", "note": "[Compound I-45, N-(3-fluorophenyl)-2H-1,2,3-triazol-4-amine]", "IC50": "0.1 to 1"}
{"smiles": "O=C(O)C1CC(Cc2cc(Cl)ccc2Nc2cn[nH]n2)C1", "note": "(centres unmarked) [Compound I-28, 3-(2-((2H-1,2,3-triazol-4-yl)amino)-5-chlorobenzyl)cyclobutanecarboxylic acid]", "IC50": "1 to 40"}
{"smiles": "COCCc1cc(Cl)ccc1Nc1cn[nH]n1", "note": "[Compound I-6]", "IC50": "< 0.1"}
{"smiles": "Clc1cccc(Nc2cnn[nH]2)c1", "note": "[Compound I-11]", "IC50": "0.1 to 1"}
{"smiles": "CC(C)C(Cc1cc(Cl)ccc1Nc1cn[nH]n1)C(=O)O", "note": "(centres unmarked) [Compound I-32]", "IC50": "1 to 40"}
{"smiles": "Cc1cc(Cl)cc(C)c1Nc1cnn[nH]1", "note": "[Compound I-15]", "IC50": "0.1 to 1"}
{"smiles": "Cc1ccc(Cl)cc1Nc1cnn[nH]1", "note": "[Compound I-42]", "IC50": "< 0.1"}
{"smiles": "Clc1ccc(Nc2cnn[nH]2)c(Cl)c1", "note": "[Compound I-27]", "IC50": "1 to 40"}
{"smiles": "Clc1ccc(Nc2c[nH]nn2)c(OCCN2CCOCC2)c1", "note": "[Compound I-10]", "IC50": "0.1 to 1"}
{"smiles": "Fc1cc(Cl)ccc1Nc1cnn[nH]1", "note": "[Compound I-30]", "IC50": "1 to 40"}
